Data: ChEMBL document CHEMBL4406837, “Cyclin dependent kinase (CDK) inhibitors as anticancer drugs: Recent advances (2015-2019)” (Bioorg Med Chem Lett, 2019)
Each block holds one compound with its values, some of them ahead of it.

Key:
CDK9/cyclin T1 [1] = molecular target: T1, CDK9/cyclin T1 (Homo sapiens, UniProt P50750); assay: Competitive irreversible inhibition of CDK9/cyclin T (unknown origin); type: protein-complex assay
[2] = molecular target: T2, Cyclin-dependent kinase 2/cyclin E1 (Homo sapiens, UniProt P24941); assay: Competitive irreversible inhibition of CDK2/cyclin E (unknown origin); type: protein-complex assay
[3] = Clearance in mouse; type: ADME, organism-based; details: in vivo
CDK9/cyclin T1 [4] = molecular target: T1, CDK9/cyclin T1; assay: Competitive irreversible inhibition of CDK9/cyclin T (unknown origin) in presence of Km ATP; type: protein-complex assay
CDK12/Cyclin K [5] = molecular target: T3, CDK12/Cyclin K (Homo sapiens, UniProt Q9NYV4); assay: Competitive irreversible inhibition of CDK12/cyclinK (unknown origin) in presence of Km ATP; type: protein-complex assay
T3 sequence (O75909 whole entry): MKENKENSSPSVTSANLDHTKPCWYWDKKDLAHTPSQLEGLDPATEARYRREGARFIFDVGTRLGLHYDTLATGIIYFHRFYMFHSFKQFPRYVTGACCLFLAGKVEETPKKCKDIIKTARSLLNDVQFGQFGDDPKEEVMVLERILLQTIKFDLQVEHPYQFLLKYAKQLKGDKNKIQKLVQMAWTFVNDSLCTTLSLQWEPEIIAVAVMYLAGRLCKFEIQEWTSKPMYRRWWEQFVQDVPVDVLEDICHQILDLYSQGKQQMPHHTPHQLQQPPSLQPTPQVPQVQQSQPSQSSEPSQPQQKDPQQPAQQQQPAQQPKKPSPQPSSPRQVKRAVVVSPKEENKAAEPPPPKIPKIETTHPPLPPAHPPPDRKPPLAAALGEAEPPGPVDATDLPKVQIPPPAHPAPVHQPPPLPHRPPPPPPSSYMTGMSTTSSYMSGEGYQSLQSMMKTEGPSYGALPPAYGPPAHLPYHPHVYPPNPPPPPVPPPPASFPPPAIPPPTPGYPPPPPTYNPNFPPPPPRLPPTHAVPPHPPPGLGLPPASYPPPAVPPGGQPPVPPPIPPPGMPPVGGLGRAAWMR
T3 sequence (Q9NYV4 whole entry): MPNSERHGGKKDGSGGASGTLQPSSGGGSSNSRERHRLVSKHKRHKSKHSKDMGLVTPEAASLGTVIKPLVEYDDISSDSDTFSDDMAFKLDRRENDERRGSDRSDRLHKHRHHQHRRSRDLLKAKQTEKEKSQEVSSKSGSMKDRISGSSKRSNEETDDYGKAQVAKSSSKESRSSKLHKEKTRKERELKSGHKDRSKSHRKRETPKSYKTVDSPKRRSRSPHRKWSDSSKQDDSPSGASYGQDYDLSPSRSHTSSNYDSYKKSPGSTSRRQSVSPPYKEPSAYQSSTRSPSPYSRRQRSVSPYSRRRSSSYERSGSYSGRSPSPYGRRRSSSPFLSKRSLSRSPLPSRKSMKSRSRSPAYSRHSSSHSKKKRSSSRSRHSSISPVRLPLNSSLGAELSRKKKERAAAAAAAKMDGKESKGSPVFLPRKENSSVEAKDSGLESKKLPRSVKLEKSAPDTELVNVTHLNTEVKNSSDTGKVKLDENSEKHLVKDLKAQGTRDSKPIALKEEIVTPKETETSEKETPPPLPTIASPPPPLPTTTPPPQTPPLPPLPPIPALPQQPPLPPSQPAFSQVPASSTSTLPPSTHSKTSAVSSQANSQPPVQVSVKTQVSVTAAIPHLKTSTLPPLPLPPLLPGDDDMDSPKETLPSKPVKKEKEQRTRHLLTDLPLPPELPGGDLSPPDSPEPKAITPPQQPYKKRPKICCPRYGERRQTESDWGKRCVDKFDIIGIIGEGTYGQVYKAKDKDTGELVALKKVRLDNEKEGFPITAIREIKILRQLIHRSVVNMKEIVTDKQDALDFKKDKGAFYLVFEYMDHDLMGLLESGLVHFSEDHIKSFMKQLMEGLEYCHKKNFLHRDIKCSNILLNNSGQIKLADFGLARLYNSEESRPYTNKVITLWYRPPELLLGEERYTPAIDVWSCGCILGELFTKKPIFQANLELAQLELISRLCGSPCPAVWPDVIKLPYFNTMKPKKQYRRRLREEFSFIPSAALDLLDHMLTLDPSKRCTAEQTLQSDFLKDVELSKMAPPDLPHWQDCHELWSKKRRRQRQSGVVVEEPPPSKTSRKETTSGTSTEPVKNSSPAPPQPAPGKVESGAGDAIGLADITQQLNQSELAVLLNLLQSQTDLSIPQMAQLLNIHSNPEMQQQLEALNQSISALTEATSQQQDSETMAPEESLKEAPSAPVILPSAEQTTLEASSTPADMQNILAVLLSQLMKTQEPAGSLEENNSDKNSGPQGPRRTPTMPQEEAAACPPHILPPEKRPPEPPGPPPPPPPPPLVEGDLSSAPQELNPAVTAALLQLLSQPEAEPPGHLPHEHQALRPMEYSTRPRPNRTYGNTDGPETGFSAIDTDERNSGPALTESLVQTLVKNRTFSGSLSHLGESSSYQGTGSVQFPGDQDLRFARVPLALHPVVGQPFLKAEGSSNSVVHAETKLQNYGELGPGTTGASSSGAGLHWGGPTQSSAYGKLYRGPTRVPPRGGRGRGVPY

CDK7/Cyclin H/MNAT1 [6] = molecular target: T4, CDK7/Cyclin H/MNAT1 (Homo sapiens, UniProt P50613); assay: Competitive irreversible inhibition of CDK7/cyclinH/MAT1 (unknown origin) using 5-FAM YSPTSPSYSPTSPSYSPTSPSKKKK as substrate in presence of 2 mM ATP; type: protein-complex assay
T4 sequence (P51946 whole entry): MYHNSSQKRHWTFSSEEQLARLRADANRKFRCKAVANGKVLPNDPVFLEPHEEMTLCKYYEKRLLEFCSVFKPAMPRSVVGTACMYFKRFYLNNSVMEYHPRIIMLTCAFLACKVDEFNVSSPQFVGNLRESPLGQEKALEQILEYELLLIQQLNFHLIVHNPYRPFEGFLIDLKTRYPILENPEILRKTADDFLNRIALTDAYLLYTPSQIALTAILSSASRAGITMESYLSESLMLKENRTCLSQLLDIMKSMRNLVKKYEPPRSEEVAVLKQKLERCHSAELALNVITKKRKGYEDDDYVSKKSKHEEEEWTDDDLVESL
T4 sequence (P50613 whole entry): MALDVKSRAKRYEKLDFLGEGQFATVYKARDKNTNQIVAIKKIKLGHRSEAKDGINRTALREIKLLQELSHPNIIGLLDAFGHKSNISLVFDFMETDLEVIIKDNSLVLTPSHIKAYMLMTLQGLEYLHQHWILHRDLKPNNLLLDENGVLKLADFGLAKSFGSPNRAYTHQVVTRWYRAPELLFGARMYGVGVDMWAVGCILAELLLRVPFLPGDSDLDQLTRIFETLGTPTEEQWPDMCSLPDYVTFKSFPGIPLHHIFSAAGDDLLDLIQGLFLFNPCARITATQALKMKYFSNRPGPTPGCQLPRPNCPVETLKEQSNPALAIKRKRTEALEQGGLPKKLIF
T4 sequence (P51948 whole entry, further chain): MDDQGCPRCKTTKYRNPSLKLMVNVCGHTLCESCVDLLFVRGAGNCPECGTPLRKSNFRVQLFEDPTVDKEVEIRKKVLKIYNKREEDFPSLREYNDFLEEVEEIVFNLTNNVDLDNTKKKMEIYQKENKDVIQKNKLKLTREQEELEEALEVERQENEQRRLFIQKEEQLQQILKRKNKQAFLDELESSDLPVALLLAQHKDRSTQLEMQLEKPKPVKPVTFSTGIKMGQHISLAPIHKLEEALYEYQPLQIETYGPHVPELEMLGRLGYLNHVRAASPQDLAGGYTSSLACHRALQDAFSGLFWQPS

HL-60 = assay: Antiproliferative activity against human HL60 cells after 72 hrs by CellTiter-Glo assay; type: functional, cell-based; details: HL-60, 72 h
CDK7/Cyclin H/MNAT1 [7] = molecular target: T4, CDK7/Cyclin H/MNAT1; assay: Competitive irreversible inhibition of CDK7/cyclinH/MAT1 (unknown origin); type: protein-complex assay
CDK7/Cyclin H/MNAT1 [8] = molecular target: T4, CDK7/Cyclin H/MNAT1; assay: Competitive irreversible inhibition of CDK7/cyclinH/MAT1 (unknown origin) using 5-FAM YSPTSPSYSPTSPSYSPTSPSKKKK as substrate in presence of Km ATP; type: protein-complex assay
CDK7/Cyclin H/MNAT1 [9] = molecular target: T4, CDK7/Cyclin H/MNAT1; assay: Competitive irreversible inhibition of CDK7/cyclinH/MAT1 (unknown origin) using 5-FAM YSPTSPSYSPTSPSYSPTSPSKKKK as substrate; type: protein-complex assay
CDK12/Cyclin K [10] = molecular target: T3, CDK12/Cyclin K
[11] = molecular target: Cyclin-dependent kinase 13/Cyclin-K (Homo sapiens, UniProt Q14004)
[12] = molecular target: T5, Cyclin-dependent kinase 2 (Homo sapiens, UniProt P24941); assay: Inhibition of CDK2 (unknown origin) relative to control; details: concentration not given here
[13] = molecular target: Cyclin-dependent kinase 1 (Homo sapiens) (UniProt P06493); assay: Inhibition of CDK1 (unknown origin) relative to control; details: concentration not given here
HCT-116 = assay: Anti-tumor activity in human HCT116 cells xenografted in in vivo animal model assessed tumor growth inhibition at 100 mg/kg, qd after 13 days relative to control; type: functional; details: HCT-116, 312 h, read-out: TGI
[14] = molecular target: Cyclin-dependent kinase 4 (Homo sapiens, UniProt P11802); assay: Competitive reversible inhibition of CDK4 (unknown origin)
[15] = molecular target: Cyclin-dependent kinase 6 (Homo sapiens, UniProt Q00534); assay: Competitive reversible inhibition of CDK6 (unknown origin)
[16] = molecular target: Cyclin-dependent kinase 5 (Homo sapiens, UniProt Q00535); assay: Competitive reversible inhibition of CDK5 (unknown origin)
Sequence of Cyclin-dependent kinase 5 (Q00535 whole entry): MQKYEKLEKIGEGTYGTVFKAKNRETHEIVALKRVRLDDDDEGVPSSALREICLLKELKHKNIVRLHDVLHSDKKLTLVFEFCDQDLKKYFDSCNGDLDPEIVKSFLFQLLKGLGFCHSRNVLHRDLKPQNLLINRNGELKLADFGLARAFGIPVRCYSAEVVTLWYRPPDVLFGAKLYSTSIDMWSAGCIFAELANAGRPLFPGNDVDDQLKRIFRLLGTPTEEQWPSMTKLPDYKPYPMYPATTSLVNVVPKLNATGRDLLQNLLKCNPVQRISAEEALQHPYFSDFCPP

[17] = molecular target: Cyclin-dependent kinase 8 (Homo sapiens, UniProt P49336); assay: Competitive reversible inhibition of CDK8 (unknown origin)
Sequence of Cyclin-dependent kinase 8 (P49336 whole entry): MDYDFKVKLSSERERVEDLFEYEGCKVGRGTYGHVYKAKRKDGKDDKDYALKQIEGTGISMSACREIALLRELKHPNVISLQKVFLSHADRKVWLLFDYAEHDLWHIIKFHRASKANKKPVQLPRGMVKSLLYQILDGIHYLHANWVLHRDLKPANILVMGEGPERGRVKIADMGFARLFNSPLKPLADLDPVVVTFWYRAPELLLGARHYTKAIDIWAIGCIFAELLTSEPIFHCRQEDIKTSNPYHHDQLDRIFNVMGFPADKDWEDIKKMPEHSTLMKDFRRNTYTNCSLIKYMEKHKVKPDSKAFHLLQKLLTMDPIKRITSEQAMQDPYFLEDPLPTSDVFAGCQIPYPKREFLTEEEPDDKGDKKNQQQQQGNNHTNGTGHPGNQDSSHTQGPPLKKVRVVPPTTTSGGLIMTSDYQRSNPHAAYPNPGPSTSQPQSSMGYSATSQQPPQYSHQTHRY

CDK7/Cyclin H/MNAT1 [18] = molecular target: T4, CDK7/Cyclin H/MNAT1; assay: Competitive irreversible inhibition of CDK7/cyclinH/MAT1 (unknown origin) in presence of 1 mM ATP; type: protein-complex assay
[19] = molecular target: T6, CDK7/Cyclin H/MNAT1 (Homo sapiens) (UniProt P51946+P50613+P51948); assay: Ratio of Ki CDK7/cyclinH/MAT1 (unknown origin) to Kinact CDK7/cyclinH/MAT1 (unknown origin) assessed as inactivation constant; type: protein-complex assay
[20] = molecular target: T6, CDK7/Cyclin H/MNAT1 (Homo sapiens); assay: Competitive irreversible inhibition of CDK7/cyclinH/MAT1 (unknown origin) assessed as inactivation constant using 5-FAM YSPTSPSYSPTSPSYSPTSPSKKKK as substrate; type: protein-complex assay
Hs 683 = assay: Antiproliferative activity against human Hs683 cells; type: functional, cell-based
[21] = Antiproliferative activity against imatinib-resistant human K562R-1 cells; type: functional
[22] = molecular target: T5, Cyclin-dependent kinase 2; assay: Inhibition of CDK2 (unknown origin)
K562 = assay: Antiproliferative activity against wild type human K562 cells; type: functional, cell-based
[23] = Antiproliferative activity against imatinib-resistant human K562R-2 cells; type: functional
[24] = molecular target: Cyclin-dependent kinase 14/Cyclin-Y (Homo sapiens, UniProt O94921+Q8ND76); assay: Competitive irreversible inhibition of CDK14/cyclin Y (unknown origin) in presence of Km ATP; type: protein-complex assay
[25] = molecular target: T2, Cyclin-dependent kinase 2/cyclin E1; assay: Competitive reversible inhibition of CDK2/cyclin E (unknown origin); type: protein-complex assay
[26] = molecular target: T5, Cyclin-dependent kinase 2; assay: Binding affinity to CDK2 (unknown origin) assessed as inactivation constant
[27] = molecular target: T5, Cyclin-dependent kinase 2; assay: Binding affinity to CDK2 (unknown origin) assessed as association rate constant
[28] = molecular target: T5, Cyclin-dependent kinase 2; assay: Binding affinity to CDK2 (unknown origin) assessed as dissociation rate constant
[29] = molecular target: T2, Cyclin-dependent kinase 2/cyclin E1; assay: Inhibition of human CDK2/cyclin E; type: protein-complex assay
[30] = molecular target: NUAK family SNF1-like kinase 2 (Homo sapiens, UniProt Q9H093); assay: Binding affinity to SNARK (unknown origin)
CDK9/Cyclin-H = CDK9/Cyclin-H (Homo sapiens, UniProt P50750+P51946); assay: Inhibition of CDK9/cyclin H (unknown origin); type: protein-complex assay
Sequence of CDK9/Cyclin-H (P51946 whole entry): as the sequence (P51946 whole entry) above
Sequence of CDK9/Cyclin-H (P50750 whole entry): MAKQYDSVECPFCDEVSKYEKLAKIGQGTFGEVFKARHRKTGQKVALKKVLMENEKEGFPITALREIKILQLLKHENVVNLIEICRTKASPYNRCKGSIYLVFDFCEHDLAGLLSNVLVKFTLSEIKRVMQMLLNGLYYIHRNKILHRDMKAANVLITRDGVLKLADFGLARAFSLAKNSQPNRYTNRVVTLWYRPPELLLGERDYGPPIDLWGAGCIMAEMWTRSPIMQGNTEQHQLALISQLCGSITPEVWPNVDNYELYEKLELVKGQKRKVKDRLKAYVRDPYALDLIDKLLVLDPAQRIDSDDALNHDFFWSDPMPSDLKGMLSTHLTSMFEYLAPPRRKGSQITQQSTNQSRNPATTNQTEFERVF

[31] = molecular target: Receptor-type tyrosine-protein kinase FLT3 (Homo sapiens, UniProt P36888, D835V); assay: Binding affinity to human FLT3 D835V mutant
[32] = molecular target: Receptor-type tyrosine-protein kinase FLT3 (Homo sapiens, UniProt P36888, ITD); assay: Binding affinity to human FLT3 ITD mutant
[33] = molecular target: Serine/threonine-protein kinase Nek10 (Homo sapiens, UniProt Q6ZWH5); assay: Binding affinity to NEK10 (unknown origin)
[34] = molecular target: Cyclin-dependent kinase 4/cyclin D1 (Homo sapiens, UniProt P11802); assay: Inhibition of human CDK4/cyclinD1; type: protein-complex assay
MCF7 = assay: Antiproliferative activity against human MCF7 cells; type: functional, cell-based
OVCAR-3 = assay: Antiproliferative activity against human OVCAR3 cells; type: functional, cell-based

T1 sequence (O60563 whole entry): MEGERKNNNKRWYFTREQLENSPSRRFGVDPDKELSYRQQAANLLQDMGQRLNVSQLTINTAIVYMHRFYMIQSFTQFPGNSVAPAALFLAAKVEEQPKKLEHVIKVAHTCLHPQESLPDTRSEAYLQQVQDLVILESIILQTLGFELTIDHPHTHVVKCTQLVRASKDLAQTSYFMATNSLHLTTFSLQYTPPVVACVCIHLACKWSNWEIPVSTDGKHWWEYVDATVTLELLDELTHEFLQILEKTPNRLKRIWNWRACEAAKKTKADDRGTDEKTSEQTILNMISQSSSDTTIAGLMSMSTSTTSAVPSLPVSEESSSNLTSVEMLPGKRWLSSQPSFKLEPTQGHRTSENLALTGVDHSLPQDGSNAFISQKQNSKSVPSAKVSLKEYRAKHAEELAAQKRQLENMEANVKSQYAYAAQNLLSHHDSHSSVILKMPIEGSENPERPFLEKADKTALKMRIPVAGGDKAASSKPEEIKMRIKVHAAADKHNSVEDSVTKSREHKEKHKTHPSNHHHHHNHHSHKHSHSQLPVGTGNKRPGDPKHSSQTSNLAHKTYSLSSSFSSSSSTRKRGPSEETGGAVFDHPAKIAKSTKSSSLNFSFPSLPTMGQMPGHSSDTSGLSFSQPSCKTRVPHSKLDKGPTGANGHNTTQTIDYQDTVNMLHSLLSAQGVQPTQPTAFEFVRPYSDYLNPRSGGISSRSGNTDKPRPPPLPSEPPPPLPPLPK
T1 sequence (P50750 whole entry): as the sequence (P50750 whole entry) above

IC50 (CDK9/cyclin T1 [1]): 20 nM
IC50 [2]: 932 nM
SMILES: C=CC(=O)Nc1cccc(Nc2cc(N3CCCC[C@H]3CCO)nc3c(CC)cnn23)c1

clearance [3]: 6 mL/min/kg
IC50 (CDK9/cyclin T1 [4]): 914 nM
IC50 (CDK12/Cyclin K [5]): 20 nM
IC50 (CDK7/Cyclin H/MNAT1 [6]): 590 nM
EC50 (HL-60): 8 nM
EC50 (CDK7/Cyclin H/MNAT1 [7]): 13 nM
IC50 (CDK7/Cyclin H/MNAT1 [8]): 84 nM
Ki (CDK7/Cyclin H/MNAT1 [9]): 17.4 nM
SMILES: CN(C)C/C=C/C(=O)Nc1ccc(C(=O)N[C@@]2(C)CCC[C@@H](Nc3ncc(Cl)c(-c4c[nH]c5ccccc45)n3)C2)nc1

clearance [3]: 129 mL/min/kg
IC50 (CDK12/Cyclin K [5]): 371 nM
IC50 (CDK12/Cyclin K [10]): 893 nM
IC50 [11]: 628 nM
EC50 (HL-60): 38 nM
SMILES: CN(C)C/C=C/C(=O)Nc1ccc(C(=O)Nc2cccc(Nc3ncc(Cl)c(-c4c[nH]c5ccccc45)n3)c2)cc1

inhibition [12]: 5%
inhibition [13]: -2%
SMILES: C=CC(=O)N1CCN(C(=O)OC)c2ccccc21

IC50 [14]: 49000 nM
IC50 [15]: 34000 nM
IC50 [16]: 9400 nM
IC50 [17]: 1200 nM
SMILES: CC(C)c1cnn2c(NCc3ccccc3)cc(NC[C@H]3CCNC[C@@H]3O)nc12 [CT-7001]
inhibition in vivo at 100 mg/kg (HCT-116): 60%

IC50 [14]: 33000 nM
IC50 [15]: 47000 nM
IC50 [16]: 3000 nM
IC50 [17]: 4200 nM
SMILES: CC(C)c1cnn2c(NCc3ccccc3)cc(NCCCCCCN)nc12

IC50 (CDK7/Cyclin H/MNAT1 [18]): 53 nM
SMILES: C=CC(=O)Nc1ccc(C(=O)Nc2n[nH]c3c2CN(C(=O)N[C@H](CN(C)C)c2ccccc2)C3(C)C)cc1

inhibition [12]: 83%
inhibition [13]: 2%
SMILES: C=CC(=O)N1CCN(C(=O)OC(C)(C)C)c2ccccc21

IC50 [17]: 90 nM
SMILES: CC(C)c1cnn2c(NCc3ccccc3)cc(N[C@@H](CO)[C@H](O)CO)nc12

clearance [3]: 29 mL/min/kg
IC50 (CDK9/cyclin T1 [4]): 226 nM
IC50 (CDK7/Cyclin H/MNAT1 [6]): 205 nM
Ratio [19]: 0.05 µM⁻¹ s⁻¹
EC50 (HL-60): 3 nM
EC50 (CDK7/Cyclin H/MNAT1 [7]): 4 nM
Kinact [20]: 11.3 h⁻¹
IC50 (CDK7/Cyclin H/MNAT1 [8]): 23 nM
Ki (CDK7/Cyclin H/MNAT1 [9]): 62.5 nM
SMILES: CN(C)C/C=C/C(=O)Nc1ccc(C(=O)N[C@H]2CCC[C@@H](Nc3ncc(Cl)c(-c4c[nH]c5ccccc45)n3)C2)nc1

SMILES: CN1CCN(c2ccc(Nc3ncc4cc5n(c4n3)C3(CCCCC3)CNC5=O)nc2)CC1 [TRILACICLIB]
IC50 (Hs 683): 30 nM

clearance [3]: 17 mL/min/kg
IC50 (CDK9/cyclin T1 [4]): 627 nM
IC50 (CDK12/Cyclin K [5]): 312 nM
IC50 (CDK7/Cyclin H/MNAT1 [6]): 908 nM
Ratio [19]: 0.013 µM⁻¹ s⁻¹
EC50 (HL-60): 13 nM
EC50 (CDK7/Cyclin H/MNAT1 [7]): 48 nM
Kinact [20]: 4.8 h⁻¹
IC50 (CDK7/Cyclin H/MNAT1 [8]): 112 nM
Ki (CDK7/Cyclin H/MNAT1 [9]): 105 nM
SMILES: CN(C)C/C=C/C(=O)Nc1ccc(C(=O)N[C@H]2CCC[C@@H](Nc3ncc(Cl)c(-c4c[nH]c5ccccc45)n3)C2)cc1

IC50 [22]: 2 to 60 nM
IC50 (K562): 669 nM
SMILES: O=C1Nc2ccc([N+](=O)[O-])cc2/C1=C1/Nc2ccc(O)cc2/C1=N\O
IC50 [21]: 856 nM
IC50 [23]: 711 nM

SMILES: CN(C)C/C=C/C(=O)Nc1cccc(S(=O)(=O)N2CCC(NC(=O)c3n[nH]cc3NC(=O)c3c(Cl)cc(Cl)cc3Cl)CC2)c1
IC50 [24]: 88 nM

SMILES: CC[C@H](Nc1nc(NCc2cnc(C)cc2C)c2ncn(C(C)C)c2n1)[C@@H](C)O [CYC-065]
IC50 [25]: 5 nM
IC50 [16]: 23 nM

SMILES: CN(C)C/C=C/C(=O)Nc1ccc(C(=O)N2CCC[C@@H](Nc3ncc(Cl)c(-c4c[nH]c5ccccc45)n3)C2)cc1
IC50 (CDK9/cyclin T1 [4]): 834 nM

Kinact [26]: 5 ×10³ /M/s
K [27]: 0.55 ×10⁶ /M/s
K [28]: 0.07 s⁻¹
SMILES: C=CS(=O)(=O)c1ccc(Nc2nc(OCC3CCCCC3)c3nc[nH]c3n2)cc1

EC50 [29]: < 100 nM
Kd [30]: 0.7 nM
IC50 (CDK9/Cyclin-H): 280 nM
Kd [31]: 22 nM
Kd [32]: 6.5 nM
Kd [33]: 0.2 nM
EC50 [34]: < 100 nM
SMILES: CC(C)N1CCN(c2ccc(Nc3ncc4cc5n(c4n3)C3(CCCCC3)CNC5=O)nc2)CC1 [LEROCICLIB]

IC50 (MCF7): 48 nM
IC50 (OVCAR-3): 48 nM
SMILES: C[C@@]1(O)CCC[C@H]1n1c(=O)c(C(F)F)cc2cnc(NC3CCN(S(C)(=O)=O)CC3)nc21 [EBVACICLIB]
